In patent US5444042A, “Method of treatment of neurodegeneration with calpain inhibitors” (Cortex Pharmaceuticals, priority 1994, dated 1995):
pKi: −log10 of the molar value. Where a SMILES comes first, the peptide text is derived from it. The star is where a group is joined. Boc = CC(C)(C)OC(=O)*; CH2Cl = ClC*

Tests used:
Calpain I = biological target: T1, Calpain I (Homo sapiens, UniProt P07384); experiment: Calpain I KI (Table 1B(ii)); assay type: biochemical; settings: Table 1B(ii)
T1 sequence (P07384 1-714): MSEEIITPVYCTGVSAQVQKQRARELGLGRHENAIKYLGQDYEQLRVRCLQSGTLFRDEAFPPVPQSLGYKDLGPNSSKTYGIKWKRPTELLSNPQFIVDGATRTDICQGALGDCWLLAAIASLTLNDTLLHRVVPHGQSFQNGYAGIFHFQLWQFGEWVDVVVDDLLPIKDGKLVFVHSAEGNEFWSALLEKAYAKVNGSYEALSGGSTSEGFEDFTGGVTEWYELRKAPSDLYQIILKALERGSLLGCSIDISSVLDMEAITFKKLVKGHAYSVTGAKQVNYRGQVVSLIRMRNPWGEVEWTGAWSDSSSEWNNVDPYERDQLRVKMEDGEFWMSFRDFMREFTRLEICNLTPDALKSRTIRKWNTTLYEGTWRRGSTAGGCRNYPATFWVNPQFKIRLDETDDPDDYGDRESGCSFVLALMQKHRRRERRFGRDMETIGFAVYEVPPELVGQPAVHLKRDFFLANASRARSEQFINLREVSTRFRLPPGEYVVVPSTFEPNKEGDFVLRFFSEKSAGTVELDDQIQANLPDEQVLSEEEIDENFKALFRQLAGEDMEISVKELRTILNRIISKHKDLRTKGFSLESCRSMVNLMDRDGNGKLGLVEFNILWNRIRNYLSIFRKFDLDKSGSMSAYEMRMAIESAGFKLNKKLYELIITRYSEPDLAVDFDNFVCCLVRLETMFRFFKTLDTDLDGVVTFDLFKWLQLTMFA
T1 sequence (P04632 1-268 partner): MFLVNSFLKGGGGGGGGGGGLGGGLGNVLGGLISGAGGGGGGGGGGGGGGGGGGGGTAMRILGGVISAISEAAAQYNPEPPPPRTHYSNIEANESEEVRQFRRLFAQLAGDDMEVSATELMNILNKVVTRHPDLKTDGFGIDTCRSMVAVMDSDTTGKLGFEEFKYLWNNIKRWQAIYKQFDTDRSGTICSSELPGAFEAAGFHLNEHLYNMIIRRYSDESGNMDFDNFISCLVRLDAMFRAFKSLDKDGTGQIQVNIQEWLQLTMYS
Excerpt: We tested the ability of an additional group of Peptide Keto-Compounds to inhibit several proteases in order to evaluate their specificity for Calpain.

Papain = biological target: T2, Papain (Carica papaya, UniProt P00784); experiment: Kapp/[I] progress curve method, Papain (Table 1C); assay type: biochemical; settings: benzoyl-arg-4-nitroanilide
T2 sequence (P00784 134-345): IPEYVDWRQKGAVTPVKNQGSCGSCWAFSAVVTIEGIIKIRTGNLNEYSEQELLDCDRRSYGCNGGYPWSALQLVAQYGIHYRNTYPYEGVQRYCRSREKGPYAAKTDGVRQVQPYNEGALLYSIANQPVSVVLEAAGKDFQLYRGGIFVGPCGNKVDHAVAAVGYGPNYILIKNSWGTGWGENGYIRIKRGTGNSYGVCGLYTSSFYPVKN
Description: (§1) The Halo-Ketone Peptides, like the substituted isocoumarins, are irreversible inhibitors of Calpain. We determined the Kapp /[I] values for various members of this class of compounds against Calpains I and II. For comparison, we also determined these values against the additional thiol proteases Papain and Cathepsin B for at least one Halo-Ketone Peptide.
(§2) We assayed Calpain I and II using Suc-leu-tyr-amidomethylcoumarin. Papain was assayed using benzoyl-arg-4-nitroanilide, and Cathepsin B (bovine) was assayed using CBZ-lys-4-nitrophenyl ester. We followed the progress curve method of Tian and Tsou, Biochemistry, 21:1028-1032 (1982), the disclosure of which is hereby incorporated by reference, to derive kinetic data. Briefly, this method makes use of the equation: [formula] where [P.infin. ] represents the concentration of product formed at a time approaching infinity, A is the Kapp in the presence of substrate (S), K is the Michaelis constant and [Y] is the concentration of the inhibitor. Since [S] and [Y] are known and V and K can be determined, Kapp can be readily determined.

Calpain II = experiment: Kapp/[I] progress curve method, Calpain II (Table 1C); assay type: biochemical; set-up: unit not given here; settings: Rabbit Calpain II, Suc-leu-tyr-amidomethylcoumarin
Description: as §1, §2

Cathepsin B = Cathepsin B (Bos taurus, UniProt P07688); experiment: Kapp/[I] progress curve method, Cathepsin B (Table 1C); assay type: biochemical, bovine; settings: CBZ-lys-4-nitrophenyl ester
Description: as §1, §2

hippocampal slices = experiment: Hippocampal slice EPSP recovery from severe hypoxia (FIG. 5); assay type: cell-based, rat; settings: one hour incubation
Description: These studies were performed in a manner similar to that of Example 7B, except using a hypoxic environment in place of the anoxia of Example 7B. […] The control slices experienced little or no recovery.

## CCCC(NC(=O)[C@H](CC(C)C)NC(=O)OCc1ccccc1)C(=O)C(=O)OCC (mixture of isomers) [Z-Leu-Nva-COOEt, Z-Leu-DL-Nva-COOEt]
Calpain I
  pKi: 5.85

## CC(C)CC(NC(=O)CNC(=O)OC(C)(C)C)C(=O)NC(Cc1ccccc1)C(=O)CCl (stereo not drawn) [Boc-Gly-Leu-Phe-CH2 Cl] (Boc-Gly-Leu-Phe-CH2Cl; configuration not given here)
Papain
  Kapp/[I] P: 540000
Calpain II
  Kapp/[I] CII: 902000
Cathepsin B
  Kapp/[I] CB: 290000

## CCOC(=O)C(=O)C(Cc1ccccc1)NC(=O)C(CC(C)C)NC(=O)OCc1ccccc1 (stereo not drawn) [Z-Leu-Phe-COOEt]
Hippocampal slices
  percent recovery of EPSP from severe hypoxia (FIG. 5): partial recovery
